From patent US12398093B2, “Compounds and methods for treating inflammatory disorders” (Board of Supervisors of Louisiana State University and …, priority 2019, dated 2025)
Several values for one entry are separate records, joined by “and”; a condition that tells them apart may be missing. Equal values may be shown once. Read-outs that look alike come from different tables or passages of the source. Marks after values point to notes of the source that are not given here.

Assays:
[1] = target: T1, 5-HT1D (Rattus norvegicus, UniProt P28565); assay: Radioligand binding, agonist radioligand [3H]serotonin; design: species or system human
T1 construct: membrane preparations
T1 sequence (P28565 whole entry): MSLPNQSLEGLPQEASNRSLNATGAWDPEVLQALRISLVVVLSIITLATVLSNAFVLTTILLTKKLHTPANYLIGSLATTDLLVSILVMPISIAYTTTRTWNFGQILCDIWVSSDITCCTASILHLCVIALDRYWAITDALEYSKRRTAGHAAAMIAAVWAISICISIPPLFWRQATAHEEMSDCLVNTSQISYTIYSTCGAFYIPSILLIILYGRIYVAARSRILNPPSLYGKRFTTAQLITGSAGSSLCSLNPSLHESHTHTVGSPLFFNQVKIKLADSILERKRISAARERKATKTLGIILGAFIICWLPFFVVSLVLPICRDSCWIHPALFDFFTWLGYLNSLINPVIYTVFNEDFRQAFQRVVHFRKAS

[2] = In vitro metabolism, intrinsic clearance in human liver microsomes; format: in vitro ADME; settings: for Clint: human liver microsomes intrinsic clearance; for Clint / half-life / % Compound Remaining, 1st / % Compound Remaining, 2nd / % Compound Remaining, Mean: 1.0×10^−7 M; for microsomal CLint / half-life: human, human liver microsomes
[3] = target: 5-HTB (Rattus norvegicus, UniProt P28564); assay: Radioligand binding, antagonist radioligand [125I]CYP
Chain of 5-HTB (P28564 whole entry): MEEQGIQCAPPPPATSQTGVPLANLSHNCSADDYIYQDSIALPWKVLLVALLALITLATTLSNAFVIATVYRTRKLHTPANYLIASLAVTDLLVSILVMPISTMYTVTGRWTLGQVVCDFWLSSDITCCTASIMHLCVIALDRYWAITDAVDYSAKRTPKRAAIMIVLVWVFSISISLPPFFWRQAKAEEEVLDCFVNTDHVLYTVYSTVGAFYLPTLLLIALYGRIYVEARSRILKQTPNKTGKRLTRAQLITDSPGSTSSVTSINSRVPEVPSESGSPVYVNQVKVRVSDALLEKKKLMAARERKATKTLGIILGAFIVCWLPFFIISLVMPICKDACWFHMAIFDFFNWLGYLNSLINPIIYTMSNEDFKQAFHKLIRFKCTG

[4] = system: C57BL/6J mice; assay: Head twitch response (HTR), magnetometer detection; format: in vivo; settings: for HTR counts, mean: 30-minute session; for ED50: Mus musculus
Method: The head twitch response (HTR) can be used as a behavioral proxy in rodents for human hallucinogenic effects, because it can reliably distinguish hallucinogenic and non-hallucinogenic 5-HT2A receptor agonists. […] HTR studies were conducted with (R)-DOI and 2C-iBu in C57BL/6J mice.
Male C57BL/6J mice (6-8 weeks old) obtained from Jackson Laboratories (Bar Harbor, ME, USA) were housed at up to four per cage in a climate-controlled room on a reverse-light cycle (lights on at 1900 h, off at 0700 h) and were provided with ad libitum access to food and water, except during behavioral testing. Testing was conducted between 1000 and 1800 h.
Drug doses are based on the equivalent freebase weight. Test substances were dissolved in sterile isotonic saline and injected subcutaneously (SC) at a volume of 5 mL/kg.
The HTR was assessed using a head-mounted magnet and a magnetometer detection coil, according to known methods. Briefly, mice were anesthetized, a small incision was made in the scalp, and a small neodymium magnet was attached to the dorsal surface of the cranium using dental cement. Following a two-week recovery period, HTR experiments were carried out in a well-lit room with at least seven days between sessions to avoid carryover effects. Test compounds were injected immediately prior to testing. Mice were injected with drug or vehicle and then HTR activity was recorded in a glass cylinder surrounded by a magnetometer coil. Coil voltage was low-pass filtered (2-10 kHz cutoff frequency), amplified, and digitized (20 kHz sampling rate) using a Powerlab/8SP with LabChart v 7.3.2 (ADInstruments, Colorado Springs, CO, USA), then filtered off-line (40-200 Hz band-pass).
Experiment 1. Five groups of mice (n=6/group, 30 total) were treated with vehicle or R-DOI (0.1, 0.3, 1, or 3 mg/kg) and HTR activity was assessed for 30 minutes. Experiment 2. Five groups of mice (n=6-7/group, 34 total) were treated with vehicle or 2C-iBu (0.3, 1, 3, or 10 mg/kg) and HTR activity was assessed for 30 minutes. Experiment 3. Two groups of mice (n=7/group, 14 total) were treated with R-DOI (1 mg/kg) or 2C-iBu (3 mg/kg) and HTR activity was assessed for 210 minutes.
For Experiment 1 and Experiment 2, the entire thirty-minute recordings were examined for head twitches, head twitch counts were analyzed using one-way analyses of variance (ANOVA). In addition, HTR counts were analyzed in two-minute time blocks using one-way ANOVAs, with time as a repeated measure. Post hoc pairwise comparisons between selected groups were performed using Tukey's studentized range method.
A Gaussian distribution was used to fit biphasic HTR dose-response data:
[formula] [formula] In these equations, E is the drug effect, Baseline is the response in the control group, Range is the distance from Baseline to the top of the curve, [A] is the dose of the drug, and midA is the logarithm of the dose corresponding to the top of the curve. To determine whether potency differences exist between individual compounds, ED50 values were compared using an extra-sum-of-squares F-test.
For Experiment 3, HTR counts were examined in 5-min time blocks. To determine the half-life of drug responses, the descending phase of the data was fitted with a one-phase exponential decay function. The responses produced by R-(−)-DOI (1 mg/kg) or ELEU02 were analyzed using one-way ANOVA, with time as a repeated measure. Post hoc pairwise comparisons between groups were performed using Sidak's multiple comparisons test.

[5] = target: T2, 5-HT6 (h) (Homo sapiens, UniProt P50406); assay: Radioligand binding, agonist radioligand [3H]LSD
T2 construct: membrane preparations
T2 sequence (P50406 whole entry): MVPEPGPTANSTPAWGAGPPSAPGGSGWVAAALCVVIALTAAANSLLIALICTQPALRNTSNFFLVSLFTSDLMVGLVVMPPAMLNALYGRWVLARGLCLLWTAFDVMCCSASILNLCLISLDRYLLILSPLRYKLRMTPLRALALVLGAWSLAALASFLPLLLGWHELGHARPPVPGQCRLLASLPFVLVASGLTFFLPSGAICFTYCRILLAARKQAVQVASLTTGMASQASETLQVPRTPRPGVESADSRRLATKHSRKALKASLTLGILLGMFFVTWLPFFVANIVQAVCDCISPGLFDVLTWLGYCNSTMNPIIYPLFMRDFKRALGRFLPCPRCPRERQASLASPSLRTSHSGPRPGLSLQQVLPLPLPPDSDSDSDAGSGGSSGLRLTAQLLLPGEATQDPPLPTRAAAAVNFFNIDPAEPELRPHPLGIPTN

[6] = target: T3, 5-HT1A (h) (Homo sapiens, UniProt P08908); assay: Radioligand binding, agonist radioligand [3H]8-OH-DPAT
T3 construct: membrane preparations
T3 sequence (P08908 1-422): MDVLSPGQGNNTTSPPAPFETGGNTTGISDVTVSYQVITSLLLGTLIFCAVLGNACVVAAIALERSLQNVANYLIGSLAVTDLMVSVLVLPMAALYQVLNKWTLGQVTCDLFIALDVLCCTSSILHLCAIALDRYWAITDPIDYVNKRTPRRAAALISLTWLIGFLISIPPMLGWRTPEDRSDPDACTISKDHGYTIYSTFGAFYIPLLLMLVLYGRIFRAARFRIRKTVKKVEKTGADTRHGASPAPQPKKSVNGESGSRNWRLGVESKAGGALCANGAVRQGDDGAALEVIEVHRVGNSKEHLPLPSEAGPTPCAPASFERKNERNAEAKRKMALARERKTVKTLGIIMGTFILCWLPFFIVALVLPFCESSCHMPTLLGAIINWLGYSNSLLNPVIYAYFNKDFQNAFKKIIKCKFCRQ

[7] = In vitro protein binding in human plasma; format: in vitro ADME; settings: 1.0×10^−5 M; for % Protein bound, 1st / % Protein bound, 2nd / % Protein bound, Mean: human plasma; for recovery: human, plasma, protein binding assay
[8] = target: T4, 5-HT7 (h) (Homo sapiens, UniProt P34969); assay: Radioligand binding, agonist radioligand [3H]LSD
T4 construct: membrane preparations
T4 sequence (P34969 whole entry): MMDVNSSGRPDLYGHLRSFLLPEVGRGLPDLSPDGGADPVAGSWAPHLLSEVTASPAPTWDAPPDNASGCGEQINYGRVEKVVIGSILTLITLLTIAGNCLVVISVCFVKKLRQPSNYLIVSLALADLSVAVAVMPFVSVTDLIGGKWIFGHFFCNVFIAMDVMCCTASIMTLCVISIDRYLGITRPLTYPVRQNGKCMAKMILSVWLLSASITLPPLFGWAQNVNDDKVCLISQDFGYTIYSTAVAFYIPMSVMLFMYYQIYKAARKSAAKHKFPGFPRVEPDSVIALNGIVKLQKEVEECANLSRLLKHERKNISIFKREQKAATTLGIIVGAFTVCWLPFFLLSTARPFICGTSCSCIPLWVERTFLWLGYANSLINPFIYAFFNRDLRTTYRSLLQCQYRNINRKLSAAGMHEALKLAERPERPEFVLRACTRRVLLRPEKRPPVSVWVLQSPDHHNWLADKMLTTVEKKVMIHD

[9] = target: 5-HT2A (h) (Homo sapiens, UniProt P28223); assay: Radioligand binding, agonist radioligand [125I](±)DOI
Chain of 5-HT2A (h) (P28223 whole entry): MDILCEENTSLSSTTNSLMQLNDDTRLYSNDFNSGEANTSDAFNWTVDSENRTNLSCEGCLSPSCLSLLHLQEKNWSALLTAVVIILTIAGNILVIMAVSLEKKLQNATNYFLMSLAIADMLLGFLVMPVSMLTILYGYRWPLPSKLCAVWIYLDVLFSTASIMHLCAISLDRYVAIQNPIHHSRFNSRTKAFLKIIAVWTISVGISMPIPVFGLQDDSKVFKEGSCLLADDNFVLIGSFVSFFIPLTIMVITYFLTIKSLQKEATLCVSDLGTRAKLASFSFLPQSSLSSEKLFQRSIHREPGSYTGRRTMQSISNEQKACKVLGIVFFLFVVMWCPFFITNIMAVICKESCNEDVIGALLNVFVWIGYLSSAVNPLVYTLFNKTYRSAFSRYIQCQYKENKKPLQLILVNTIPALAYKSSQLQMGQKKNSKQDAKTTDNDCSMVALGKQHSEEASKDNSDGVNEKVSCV

[10] = log D at physiological pH; format: physicochemical; settings: pH 7.4
Text: This differential in the physico-chemical properties could be one of the drivers in the observed increased plasma protein binding capability of 2Ci-Bu in comparison to R-DOI and the moderate changes in the Caco-2 A-B/B-A permeability profiles.

[11] = read-out: Half-life (minutes), 1st
[12] = read-out: Half-life (minutes), 2nd
[13] = read-out: Half-life (minutes), Mean
[14] = sc, read-out: ED50 for induction of HTR, based on molar mass
[15] = SC, freebase weight, read-out: ED50 for induction of HTR

COc1cc(CC(C)C)c(OC)cc1CCN [2C-iBu, 2,5-dimethoxy-4-isobutylphenethylamine]
Ki [1]: 63.1 nM | Clint [2]: <115.5 | microsomal CLint [2]: < 116 µL/min/mg | half-life [2, 11]: > 60 min | half-life [2, 12]: 1020 min | half-life [2, 13]: > 60 min | % Compound Remaining, 1st ([2]; incubation 0 minutes): 100% | % Compound Remaining, 2nd ([2]; incubation 0 minutes): 100% | % Compound Remaining, Mean ([2]; incubation 0 minutes): 100% | % Compound Remaining, 1st ([2]; incubation 15 minutes): 91.0% | % Compound Remaining, 2nd ([2]; incubation 15 minutes): {126.7} % | % Compound Remaining, Mean ([2]; incubation 15 minutes): 91% | % Compound Remaining, 1st ([2]; incubation 30 minutes): 113.6% | % Compound Remaining, 2nd ([2]; incubation 30 minutes): 114.2% | % Compound Remaining, Mean ([2]; incubation 30 minutes): 114% | % Compound Remaining, 1st ([2]; incubation 45 minutes): 105.3% | % Compound Remaining, 2nd ([2]; incubation 45 minutes): 106.5% | % Compound Remaining, Mean ([2]; incubation 45 minutes): 106% | % Compound Remaining, 1st ([2]; incubation 60 minutes): 94.1% | % Compound Remaining, 2nd ([2]; incubation 60 minutes): 94.2% | % Compound Remaining, Mean ([2]; incubation 60 minutes): 94% | Ki [3]: 50.1 nM | HTR counts, mean ([4]; 0.3 mg/kg SC): 30.8 counts/30 min | HTR counts, mean ([4]; 1 mg/kg SC): 74.4 ** counts/30 min | HTR counts, mean ([4]; 3 mg/kg SC): 111.1±4.7 counts/30 min and 111.1 ** counts/30 min | HTR counts, mean ([4]; 10 mg/kg SC): 43.4* counts/30 min | Peak HTR counts ([4]; Experiment 3, 3 mg/kg SC): 20.1±3.5 counts/5 min | ED50 [4, 14]: 2.17 µmol/kg | ED50 [4, 15]: 0.7 mg/kg | fold lower behavioral potency than R-DOI ([4]; ratio of HTR ED50 values (μmol/kg)): ~3 fold | Ki [5]: 1260 nM | Ki [6]: 79.4 nM | % Protein bound, 1st [7]: 73.7% | % Protein bound, 2nd [7]: 74.5% | % Protein bound, Mean [7]: 74% | recovery ([7]; read-out: % Recovery, 1st): 107% | recovery ([7]; read-out: % Recovery, 2nd): 105% | recovery ([7]; read-out: % Recovery, Mean): 106% | Ki [8]: 316 nM | Ki [9]: 1.26 nM | logD [10]: 1.64

COc1cc(C[C@@H](C)N)c(OC)cc1I [R-DOI]
Clint [2]: <115.5 | microsomal CLint [2]: < 116 µL/min/mg | half-life [2, 11]: 139 min | half-life [2, 12]: 188 min | half-life [2, 13]: > 60 min | % Compound Remaining, 1st ([2]; incubation 0 minutes): 100% | % Compound Remaining, 2nd ([2]; incubation 0 minutes): 100% | % Compound Remaining, Mean ([2]; incubation 0 minutes): 100% | % Compound Remaining, 1st ([2]; incubation 15 minutes): 90.0% | % Compound Remaining, 2nd ([2]; incubation 15 minutes): 101.6% | % Compound Remaining, Mean ([2]; incubation 15 minutes): 96% | % Compound Remaining, 1st ([2]; incubation 30 minutes): 79.6% | % Compound Remaining, 2nd ([2]; incubation 30 minutes): 105.3% | % Compound Remaining, Mean ([2]; incubation 30 minutes): 92% | % Compound Remaining, 1st ([2]; incubation 45 minutes): 77.0% | % Compound Remaining, 2nd ([2]; incubation 45 minutes): 82.1% | % Compound Remaining, Mean ([2]; incubation 45 minutes): 80% | % Compound Remaining, 1st ([2]; incubation 60 minutes): 74.3% | % Compound Remaining, 2nd ([2]; incubation 60 minutes): {91.4} % | % Compound Remaining, Mean ([2]; incubation 60 minutes): 74% | Ki [3]: 2510 nM | HTR counts, mean ([4]; 0.1 mg/kg SC): 46.5 counts/30 min | HTR counts, mean ([4]; 0.3 mg/kg SC): 78.8 ** counts/30 min | HTR counts, mean ([4]; 1 mg/kg SC): 128.0±13.2 counts/30 min and 128.0 ** counts/30 min | HTR counts, mean ([4]; 3 mg/kg SC): 116.0 ** counts/30 min | Peak HTR counts ([4]; Experiment 3, 1 mg/kg SC): 23.3±3.5 counts/5 min | ED50 [4, 14]: 0.63 µmol/kg | ED50 [4, 15]: 0.2 mg/kg | ED50 ([4]; administered IP, otherwise identical conditions, read-out: ED50 for induction of HTR): 0.66 µmol/kg | % Protein bound, 1st [7]: 47.5% | % Protein bound, 2nd [7]: 49.6% | % Protein bound, Mean [7]: 49% | recovery ([7]; read-out: % Recovery, 1st): 126% | recovery ([7]; read-out: % Recovery, 2nd): 126% | recovery ([7]; read-out: % Recovery, Mean): 126% | logD [10]: 1.04
